Source: PMC6357004 (Viruses, 2018)

Experiments:
[1] = target: neuraminidase (NA) of recombinant influenza B/Phuket/3073/2013 WT virus (Influenza B virus, UniProt A0A1S5RAG6); format: biochemical, influenza B/Phuket/3073/2013 virus
[2] = system: N294S mutant; conditions: cited from earlier work

neuraminidase (NA) of recombinant influenza B/Phuket/3073/2013 WT virus, sequence (A0A1S5RAG6 entry or part of it, added parts left off): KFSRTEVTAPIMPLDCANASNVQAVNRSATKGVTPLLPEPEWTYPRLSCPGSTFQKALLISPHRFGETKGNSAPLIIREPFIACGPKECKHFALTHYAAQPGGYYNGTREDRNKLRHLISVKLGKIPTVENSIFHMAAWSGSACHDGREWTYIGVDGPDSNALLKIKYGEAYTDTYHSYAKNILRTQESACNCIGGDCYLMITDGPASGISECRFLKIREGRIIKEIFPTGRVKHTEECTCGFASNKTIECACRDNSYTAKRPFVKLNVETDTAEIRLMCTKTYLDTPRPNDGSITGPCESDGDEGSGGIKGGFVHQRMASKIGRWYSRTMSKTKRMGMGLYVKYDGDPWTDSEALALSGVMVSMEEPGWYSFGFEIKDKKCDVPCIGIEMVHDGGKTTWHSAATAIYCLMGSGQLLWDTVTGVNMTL

| Structure (SMILES) | Folds (fold changes according to WT virus) [1] [fold] | IC50 ([1]; mean of two independent experiments in duplicate, read-out: Neuraminidase Inhibitors IC50 values) [nM] | susceptibility phenotype [2] |
| --- | --- | --- | --- |
| CCC(CC)[C@H](NC(C)=O)[C@@H]1[C@H](O)[C@@H](C(=O)O)C[C@H]1N=C(N)N [Peramivir, peramivir] | 1 | 0.74 | – |
| CC(=O)N[C@H]1[C@H]([C@H](O)[C@H](O)CO)OC(C(=O)O)=C[C@@H]1N=C(N)N [Zanamivir, zanamivir] | – | – | susceptible |
